Reference: patent publication US20150315241A1, “Antibiotic Peptides” (priority 2007, published 2015)
In brackets after ≈: the same amount, converted by molar mass. Read-outs that look alike come from different tables or passages of the source. Where a SMILES comes first, the peptide text is derived from it. Where no end group is shown, it is not given here. [ ]: non-standard residue; d: D form. The star is where a group is joined. Orn(α-tetramethylguanidino) = CN(C)C(=N[C@@H](CCCN)C(=O)*)N(C)C; β3hR = N=C(N)NCCC[C@H](N)CC(=O)O; Orn = NCCC[C@H](N)C(=O)O

What was measured:
S. typhi S5 = type: cell-based, Salmonella typhi
Method: (§1) The minimal inhibition concentrations (MIC) of the apidaecin-derived peptides and peptide-derivatives were determined by a growth inhibition assay using a serial peptide dilution in sterilized round-bottom 96-well plates (polystyrene, U-bottom, Greiner Bio-One GmbH) with a final volume of 100 μL per well. The bacteria, e.g., E. coli BL21 A1, were grown in nutrient broth (NB, Carl Roth GmbH+Co. KG, Karlsruhe, Germany) at 37° C. over night. To each well of the 96-well plate, 50 μL of the overnight culture adjusted to 5×10^6 CFU/mL in 1% TSB were added. Lyophilized peptides and peptidomimetics were dissolved in 1% TSB (tryptic soy broth) or water to give a final concentration of 250 μg/mL. Fifty μL of the peptide or peptidomimetics solution were added to the first well of a row on the plate and mixed. Fifty μL of the first well containing the peptide solution were transferred to the second well, mixed and again 50 μL transferred to the next well and so on. Thereby, a two-fold dilution series was obtained starting at 250 μg/mL in the first well down to 120 ng/mL in the 12th well of a row giving a final peptide or peptidomimetics concentration from 125 μg/mL (well 1) to 60 ng/mL (well 12). Plates were incubated at 37° C. for 20 hrs. The absorbance was measured at 595 nm using a TECAN micro plate spectrophotometer (Tecan, Germany). All peptides and peptidomimetics were measured in triplicates. Sterilized water was used as a negative control.
(§2) The following multidrug resistant bacteria strains were tested: • Eschericha coli 45849 and D31, • Klebsiella pneumoniae 123132 and K6, • Salmonella typhi S5 and Salmonella enterica subsp. enterica serovar Typhimurium (ATCC 700408), • Rhizobium radiobacter (ATCC 15955 deposited as Agrobacterium tumefaciens).

E. coli D31 = type: cell-based, Escherichia coli
Method: as §1, §2

[1] = tested on: S. enterica subsp. Enterica serovar. typhi G10215 ATCC 700408; type: cell-based, Salmonella enterica
Method: as §1, §2

E. coli BL 21 AI = experiment: Growth inhibition assay (MIC); type: cell-based, Escherichia coli; settings: 1% TSB, 37° C., 20 hrs
Method: as §1
(§3) The bacteria strains were tested: • Eschericha coli 1103, 10233, BL 21 AI, DC 2, • Klebsiella pneumoniae 681, • Micrococcus luteus ATCC 10240, • Mycobacterium vaccae • Bactillus subtillis 347.

M. luteus ATCC 10240 = type: cell-based, Micrococcus luteus
Method: as §1, §3

B. subtilis 347 = type: cell-based, Bactillus subtillis; settings: 1% TSB, 37° C., 20 hrs
Method: as §1, §3

[2] = tested on: K. Pneumonia K6, ATCC 700603; experiment: Growth inhibition assay (MIC); type: cell-based, Klebsiella pneumoniae; settings: multidrug resistant strain; 1% TSB, 37° C., 20 hrs
Method: as §1, §2

E. coli 45849 = experiment: Growth inhibition assay (MIC); type: cell-based, Escherichia coli; settings: multidrug resistant strain; 1% TSB, 37° C., 20 hrs
Method: as §1, §2

K. Pneumonia 123132 = experiment: Growth inhibition assay (MIC); type: cell-based, Klebsiella pneumoniae; settings: multidrug resistant strain; 1% TSB, 37° C., 20 hrs
Method: as §1, §2

[3] = multidrug resistant strain, 1% TSB, 37° C., 20 hrs

Molecule	MIC E. coli D31 (E. coli D31; D31, 20 h)	MIC S. enterica subsp. Enterica serovar. typhi G10215 ATCC 700408 ([1]; ATCC 700408, 20 h)	MIC K. Pneumonia K6, ATCC 700603 [2]	further results
CC[C@H](C)[C@H](NC(=O)[C@H](Cc1ccc(O)cc1)NC(=O)[C@@H](NC(=O)[C@@H]1CCCN1C(=O)[C@H](CCCNC(=N)N)NC(=O)[C@H](CC(N)=O)NC(=O)[C@H](CC(N)=O)NC(=O)[C@H](CCCN)N=C(N(C)C)N(C)C)C(C)C)C(=O)N1CCC[C@H]1C(=O)N[C@@H](CCC(N)=O)C(=O)N1CCC[C@H]1C(=O)N[C@@H](CCCNC(=N)N)C(=O)N1CCC[C@H]1C(=O)N1CCC[C@H]1C(=O)N[C@@H](Cc1c[nH]cn1)C(=O)N1CCC[C@H]1C(=O)N[C@@H](CCCNC(=N)N)C(=O)N[C@@H](CC(C)C)C(N)=O [compound 120] ({Orn(α-tetramethylguanidino)}-NNRPVYIPQPRPPHPRL-NH2; N-terminus and C-terminus assumed)	0.5 µg/mL (≈ 0.221 µM)	0.125 µg/mL (≈ 0.0552 µM)		MIC S. typhi S5 (S. typhi S5; S5, 20 h): 0.125 µg/mL (≈ 0.0552 µM)
86 ([Orn]NNRPVYIPRPRPPHPRPIRV-NH2) [compound 86]				MIC E. coli BL 21 AI (E. coli BL 21 AI): 3.91 µg/mL; MIC M. luteus ATCC 10240 (M. luteus ATCC 10240; 1% TSB, 37° C., 20 hrs): 0.98 µg/mL; MIC B. subtilis 347 (B. subtilis 347): 62.5 µg/mL
GNNRPVYIPQPRPPHPL-NH2 [compound 43]	>128 µg/mL	>64 µg/mL	>64 µg/mL	
CC[C@H](C)[C@H](NC(=O)[C@H](Cc1ccc(O)cc1)NC(=O)[C@@H](NC(=O)[C@@H]1CCCN1C(=O)[C@H](CCCNC(=N)N)NC(=O)[C@H](CC(N)=O)NC(=O)[C@H](CC(N)=O)NC(=O)[C@@H](N)CCCN)C(C)C)C(=O)N1CCC[C@H]1C(=O)N[C@@H](CCC(N)=O)C(=O)N1CCC[C@H]1C(=O)N[C@@H](CCCNC(=N)N)C(=O)N1CCC[C@H]1C(=O)N1CCC[C@H]1C(=O)N[C@@H](Cc1c[nH]cn1)C(=O)N1CCC[C@H]1C(=O)N[C@@H](CCCNC(=N)N)CC(=O)N[C@@H](CC(C)C)C(N)=O [compound 121] (H-[Orn]NNRPVYIPQPRPPHP[β3hR]L-NH2)	16 µg/mL (≈ 7.34 µM)		>128 µg/mL	MIC E. coli 45849 (E. coli 45849): 128 µg/mL (≈ 58.8 µM); MIC K. Pneumonia 123132 (K. Pneumonia 123132): 128 µg/mL (≈ 58.8 µM)
159 (GNNRPVYIPRPRPPHPRL) [compound 159]			4 µg/mL	MIC E. coli 45849 (E. coli 45849): 1 µg/mL; MIC S. typhi S5 (S. typhi S5; [3]): 0.25 µg/mL; MIC E. coli D31 (E. coli D31; [3]): 1 µg/mL; MIC K. Pneumonia 123132 (K. Pneumonia 123132): 4 µg/mL; MIC S. enterica subsp. Enterica serovar. typhi G10215 ATCC 700408 [1, 3]: 0.25 µg/mL
CC[C@H](C)[C@H](NC(=O)[C@H](CCCNC(=N)N)NC(=O)[C@@H]1CCCN1C(=O)[C@H](Cc1c[nH]cn1)NC(=O)[C@@H]1CCCN1C(=O)[C@@H]1CCCN1C(=O)[C@H](CCCNC(=N)N)NC(=O)[C@@H]1CCCN1C(=O)[C@H](CCCNC(=N)N)NC(=O)[C@@H]1CCCN1C(=O)[C@@H](NC(=O)[C@H](Cc1ccc(O)cc1)NC(=O)[C@@H](NC(=O)[C@@H]1CCCN1C(=O)[C@H](CCCNC(=N)N)NC(=O)[C@H](CC(N)=O)NC(=O)[C@H](CC(N)=O)NC(=O)[C@@H](N)CCCN)C(C)C)[C@@H](C)CC)C(N)=O [compound 16] (H-[Orn]NNRPVYIPRPRPPHPRI-NH2)	128 µg/mL (≈ 58.4 µM)	2 µg/mL (≈ 0.912 µM)	32 µg/mL (≈ 14.6 µM)	MIC E. coli BL 21 AI (E. coli BL 21 AI): 0.98 µg/mL (≈ 0.447 µM); MIC M. luteus ATCC 10240 (M. luteus ATCC 10240; ATCC 10240, 20 h): 3.91 µg/mL (≈ 1.78 µM)
CC[C@H](C)[C@H](NC(=O)[C@H](Cc1ccc(O)cc1)NC(=O)[C@@H](NC(=O)[C@@H]1CCCN1C(=O)[C@H](CCCNC(=N)N)NC(=O)[C@H](CC(N)=O)NC(=O)[C@H](CC(N)=O)NC(=O)[C@H](CCCN)NC(C)=O)C(C)C)C(=O)N1CCC[C@H]1C(=O)N[C@@H](CCC(N)=O)C(=O)N1CCC[C@H]1C(=O)N[C@@H](CCCNC(=N)N)C(=O)N1CCC[C@H]1C(=O)N1CCC[C@H]1C(=O)N[C@@H](Cc1c[nH]cn1)C(=O)N1CCC[C@H]1C(=O)N[C@@H](CCCNC(=N)N)C(=O)N[C@@H](CC(C)C)C(=O)OC [compound 50] (Ac-[Orn]NNRPVYIPQPRPPHPRL-OMe)	>128 µg/mL	32 µg/mL (≈ 14.4 µM)	>128 µg/mL	
